Results on 2 molecules are retold here after ChEMBL document CHEMBL1144732 (Bioorg Med Chem Lett, 2008).

For experiment [1], the target named is Carbonic anhydrase 13 (Mus musculus, UniProt Q9D6N1).
The target of experiment [2] is Carbonic anhydrase 4 (Homo sapiens, UniProt P22748).
Experiment [3] has as its target Carbonic anhydrase 5A, mitochondrial (Homo sapiens, UniProt P35218).
Experiment [4] addresses Carbonic anhydrase 3 (Homo sapiens, UniProt P07451).
Experiment [5] addresses Carbonic anhydrase 5B, mitochondrial (Homo sapiens, UniProt Q9Y2D0).
Experiment [6] addresses Carbonic anhydrase 14 (Homo sapiens, UniProt Q9ULX7).

Chain of Carbonic anhydrase 13 (Q9D6N1 whole entry): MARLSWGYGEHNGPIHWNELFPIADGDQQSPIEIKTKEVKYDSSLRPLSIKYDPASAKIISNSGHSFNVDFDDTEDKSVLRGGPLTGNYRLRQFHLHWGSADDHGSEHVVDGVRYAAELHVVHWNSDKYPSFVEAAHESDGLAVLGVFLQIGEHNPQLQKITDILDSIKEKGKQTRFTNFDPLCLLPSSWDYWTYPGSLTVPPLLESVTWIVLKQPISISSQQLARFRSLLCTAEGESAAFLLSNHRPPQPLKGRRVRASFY
Chain of Carbonic anhydrase 4 (P22748 whole entry): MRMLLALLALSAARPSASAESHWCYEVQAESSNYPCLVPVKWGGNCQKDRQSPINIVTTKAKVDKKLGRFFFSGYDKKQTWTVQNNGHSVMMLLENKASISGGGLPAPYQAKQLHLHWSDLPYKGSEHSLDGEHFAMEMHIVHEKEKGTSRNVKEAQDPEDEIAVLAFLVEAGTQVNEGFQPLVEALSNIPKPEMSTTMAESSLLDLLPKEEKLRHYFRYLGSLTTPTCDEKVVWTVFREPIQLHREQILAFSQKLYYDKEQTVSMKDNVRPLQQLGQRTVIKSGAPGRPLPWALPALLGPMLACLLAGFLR
Chain of Carbonic anhydrase 5A, mitochondrial (P35218 whole entry): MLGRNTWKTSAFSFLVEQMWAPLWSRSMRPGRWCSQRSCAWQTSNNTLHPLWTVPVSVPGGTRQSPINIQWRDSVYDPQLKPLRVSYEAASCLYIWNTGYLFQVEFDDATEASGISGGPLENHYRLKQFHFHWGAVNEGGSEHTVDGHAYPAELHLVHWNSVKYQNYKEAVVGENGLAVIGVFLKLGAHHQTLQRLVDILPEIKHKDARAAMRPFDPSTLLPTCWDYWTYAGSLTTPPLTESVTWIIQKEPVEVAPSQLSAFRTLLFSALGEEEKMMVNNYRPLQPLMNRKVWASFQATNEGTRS
Chain of Carbonic anhydrase 3 (P07451 whole entry): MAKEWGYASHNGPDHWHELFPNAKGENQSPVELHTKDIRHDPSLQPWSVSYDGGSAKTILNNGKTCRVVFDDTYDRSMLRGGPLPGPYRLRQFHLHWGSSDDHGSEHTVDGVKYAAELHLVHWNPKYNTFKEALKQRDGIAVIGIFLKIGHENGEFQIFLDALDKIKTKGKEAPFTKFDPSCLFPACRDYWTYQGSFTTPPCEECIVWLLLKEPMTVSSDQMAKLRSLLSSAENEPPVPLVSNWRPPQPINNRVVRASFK
Chain of Carbonic anhydrase 5B, mitochondrial (Q9Y2D0 whole entry): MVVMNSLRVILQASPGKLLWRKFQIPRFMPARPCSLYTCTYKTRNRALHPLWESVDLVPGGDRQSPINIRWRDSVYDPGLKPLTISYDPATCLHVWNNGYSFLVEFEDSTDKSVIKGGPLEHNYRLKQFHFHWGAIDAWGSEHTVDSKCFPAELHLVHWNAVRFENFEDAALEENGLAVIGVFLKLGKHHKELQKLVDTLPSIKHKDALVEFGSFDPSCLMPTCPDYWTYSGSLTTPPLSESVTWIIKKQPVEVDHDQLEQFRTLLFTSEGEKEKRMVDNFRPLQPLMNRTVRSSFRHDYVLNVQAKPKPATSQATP
Chain of Carbonic anhydrase 14 (Q9ULX7 whole entry): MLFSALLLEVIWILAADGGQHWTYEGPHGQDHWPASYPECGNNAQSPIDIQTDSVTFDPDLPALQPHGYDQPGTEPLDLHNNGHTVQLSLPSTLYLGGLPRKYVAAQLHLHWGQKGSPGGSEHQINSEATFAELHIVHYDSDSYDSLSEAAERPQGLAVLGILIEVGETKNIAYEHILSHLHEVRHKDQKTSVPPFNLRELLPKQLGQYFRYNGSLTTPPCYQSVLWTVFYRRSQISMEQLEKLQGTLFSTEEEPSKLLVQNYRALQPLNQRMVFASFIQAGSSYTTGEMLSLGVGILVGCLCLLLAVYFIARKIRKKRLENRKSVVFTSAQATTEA

Broadly, the Ki is the dissociation constant of the complex between target and ligand, obtained from inhibition or displacement. The low end stands for higher affinity, the high end for lower affinity. For `CCNC1CN(CCCOC)S(=O)(=O)c2sc(S(N)(=O)=O)cc21` (single isomer, unassigned) [BRINZOLAMIDE], the values for the Ki in experiment [1] and in experiment [2] were 10 nM and 3950 nM, respectively.
With `NS(=O)(=O)c1cc(Cl)c(Cl)c(S(N)(=O)=O)c1` [DICHLORPHENAMIDE], the Ki came to 81 nM in experiment [3]; 630000 nM in experiment [4]; 1450 nM in experiment [1]; 91 nM in experiment [5]; 1540 nM in experiment [6].
